How the values were obtained:
[1] = system: BBB; assay: Assessment of BBB permeability (FITC-dextran extravasation); assay type: in vivo, C57BL/6 mice; conditions: anesthetized mice, 30 min after i.p. injection
Procedure: Assessment of BBB Permeability. For quantification of BBB disruption, a 1% solution of FITC-conjugated dextran (70 kDa; Sigma-Aldrich) in normal saline (4 mL/kg of body weight) was injected via the femoral vein. The dextran was allowed to circulate for 30 min following plasma tonicity manipulations, at which point a plasma sample was taken and the mice were perfusion-fixed as described below. Positive controls received a 2M mannitol infusion via a catheter in the right external carotid artery (0.64 mL/min for 30 seconds) 5 minutes after the dextran. The brains were harvested, sectioned, and FITC extravasation was imaged and quantified (see below). Plasma concentration of the FITC dextran was calculated by diluting the plasma samples 1:4 with PBS and analyzing them in triplicate on a fluorescence microplate reader (SpectraMax M2, Molecular Devices) at 458 nm excitation, 538 nm emission, with a cutoff above 530 nm at room temperature (24° C.). Dextran concentration was estimated by comparing the relative fluorescence of the samples against a standard curve (0.0-1.0 mg/mL, 0.1 mg/mL steps; FITC-dextran 70 kDa in PBS) fitted with a linear regression. Blood samples with hemolysis were excluded from analysis due to interference with spectrophotometric absorbance readings.
Image Analysis. All images were analyzed using ImageJ software (National Institutes of Health, imagej.nih.gov/ij/) (60). […]

[2] = system: glymphatic CSF influx; assay: Transcranial macroscopic imaging of CSF tracer (BSA-647) influx, plasma hypertonicity in awake mice; assay type: in vivo, C57BL/6 mice
Procedure: Intracisternal injections. Mice in the KX groups were weighed and anesthetized with a mixture of ketamine (100 mg/kg, i.p.) and xylazine (10 mg/kg, i.p.). Afterwards, animals were fixed in a stereotaxic frame, and the cisterna magna was surgically exposed with the help of a stereomicroscope. The cisternal space was cannulated using a 30 G needle attached via polyethylene tubing to a Hamilton syringe. The needle was secured with cyanoacrylate glue and tracers were infused with a syringe pump (Harvard Apparatus) depending on the experimental paradigm (see below). […]
Transcranial In vivo Macroscopic Imaging. […] The entry of CSF tracers into the brain was imaged by fluorescence macroscopy (MVX10, Olympus) using a PRIOR Lumen 1600-LED light source and Flash 4.0 digital camera (Hamamatsu). […]
Front tracking. To quantify the area and speed of fluorescent CSF tracer influx in the brain, inventors employed an algorithm recently developed in the context of advection-reaction-diffusion (56). […] The algorithm outputs spatially- and temporally-resolved velocity measurements quantifying the front propagation. Influx speed was calculated by averaging over the entire group data to obtain mean front speed measurements for each group. […] A fixed threshold preserved the physical meaning of the front and allowed for quantitative comparison between populations from different experiments. […]

[3] = Plasma osmolality after intraperitoneal injection; assay type: in vivo, C57BL/6 mice; conditions: i.p., KX-anesthetized mice, lasting 30 minutes
Procedure: Solutions. Control mice received isosmotic saline ([…]; 20 μL/g, i.p.). Hyperosmolality was induced either with mannitol (1M in 0.34M NaCl; 30 μL/g, i.p.) or hypertonic saline (1M NaCl in ddH2O; 20 μL/g, i.p.). Thirty minutes after intraperitoneal injection, a plasma sample was taken, and the mouse decapitated. Plasma osmolality was measured in triplicate using a micro-osmometer (Advanced Instruments).

[4] = Intracranial pressure, arterial blood pressure and laser Doppler cerebral blood flow; assay type: in vivo, C57BL/6 mice
Excerpt: Intracranial and Arterial Blood Pressure Measurements. A separate group of animals were anesthetized with a mixture of ketamine/xylazine. Afterwards, a 30 G needle connected to rigid polyethylene tubing filled with aCSF was inserted into the cisterna magna as described above and an arterial catheter was placed in the femoral artery. The lines were connected to a pressure transducer and monitor (World Precision Instruments). Recordings were allowed to stabilize, and then recorded continuously for 35 min (5 min baseline and 30 min after i.p. injection). The signals were digitized and recorded with a DigiData 1440A digitizer and AxoScope software (Axon Instruments). The intracranial and mean arterial pressure recordings were processed and analyzed using MATLAB (MathWorks).
Laser Doppler Flowmetry. Relative changes in cerebral blood flow (rCBF) were measured using laser Doppler flowmetry (PF5010 Laser Doppler Perfusion Module with microtips, PR 418-1, Perimed). The tip of the fiber optic probe was fixed directly onto the exposed skull with cyanoacrylate glue. Signals were collected using a 1440A digitizer and AxoScope software (Axon Instruments). For each mouse, rCBF was recorded both 5 minutes before and 30 minutes after the administration of i.p. solutions. The rCBF recordings were processed and analyzed using MATLAB (MathWorks).
Consequently, assays were carried out to determine if tonicity-induced changes in one of these parameters might be responsible for the observed enhancement of glymphatic CSF influx. […] This net negative ICP resulted from the outflow of ISF across the BBB (FIG. 15D), and likely provided the necessary driving force to increase CSF influx to cerebral tissues. Importantly. this transfer of brain water to the vascular column occurred across an intact BBB (FIGS. 12A-C).

[5] = system: glymphatic CSF influx; assay: Transcranial macroscopic imaging of CSF tracer (BSA-647) influx, plasma hypertonicity in KX-anesthetized mice; assay type: in vivo, C57BL/6 mice
Procedure: Intracisternal injections. Mice in the KX groups were weighed and anesthetized with a mixture of ketamine (100 mg/kg, i.p.) and xylazine (10 mg/kg, i.p.). Afterwards, animals were fixed in a stereotaxic frame, and the cisterna magna was surgically exposed with the help of a stereomicroscope. The cisternal space was cannulated using a 30 G needle attached via polyethylene tubing to a Hamilton syringe. The needle was secured with cyanoacrylate glue and tracers were infused with a syringe pump (Harvard Apparatus) depending on the experimental paradigm (see below). Mice randomized to the awake group were anesthetized with 2% isoflurane, their skull cemented to a customized head plate, placed in a restraint tube, and then underwent the same surgical procedure as described above. Tracers were allowed to circulate for 30 min after the injection start time and the needle left in place for the duration of the experiment to prevent the CSF compartment from depressurizing. Core temperature (37° C.) and anesthetic depth were maintained throughout the experiment. At the end of 30 min, animals were decapitated, and the brain processed for either fluorescent or radioisotope tracer analysis.
CSF Tracers. AlexaFluor647-conjugated bovine serum albumin (BSA-647, 66 kDa, Invitrogen) was constituted in artificial CSF (0.5% m/v) and used as a fluorescent CSF tracer. […] Fluorescent tracers and antibodies were infused in a total volume of 10 μl at a rate of 2 μl/min or 1 μl/min into the cisterna magna.
Transcranial In vivo Macroscopic Imaging. For in vivo imaging, the skin covering the dorsal calvarium was incised and reflected laterally prior to cannulating the cisterna magna. The entry of CSF tracers into the brain was imaged by fluorescence macroscopy (MVX10, Olympus) using a PRIOR Lumen 1600-LED light source and Flash 4.0 digital camera (Hamamatsu). The mouse fixed on the stereotaxic frame was placed on the microscope stage and images at 20× magnification were acquired in the far-red emission channel (647 nm). Images (2048×2048 pixel; 5.7120 μm/pixel) were collected at 1 min intervals for 0-30 min following injection commencement using the MetaMorph Basic imaging software (Molecular Devices). Exposure time was held constant throughout the duration of the imaging sequence and across experimental groups.
Front tracking. To quantify the area and speed of fluorescent CSF tracer influx in the brain, inventors employed an algorithm recently developed in the context of advection-reaction-diffusion (56). Given a time series of a two-dimensional concentration field, this algorithm tracked the location of the “front” which separates low-concentration and high-concentration regions. The algorithm outputs spatially- and temporally-resolved velocity measurements quantifying the front propagation. Influx speed was calculated by averaging over the entire group data to obtain mean front speed measurements for each group. The propagation front was identified using a threshold of 175 (on an 8-bit scale of 0 to 255); however, it was noted that the results were fairly robust to different threshold choices. This same threshold was used for all-time series of images, which was justified since care was taken to maintain similar imaging conditions across all experiments. A fixed threshold preserved the physical meaning of the front and allowed for quantitative comparison between populations from different experiments.
Solutions. Control mice received isosmotic saline (0.34M NaCl in ddH2O; 20 μL/g, i.p.).

[6] = Radioisotope influx (brain uptake of CSF-delivered tracers); conditions: 30 min
Procedure: Fluorescent tracers and antibodies were infused in a total volume of 10 μl at a rate of 2 μl/min or 1 μl/min into the cisterna magna. Radioisotope tracers were infused in a total volume of 5 μl at 1 μl/min.
Radioisotope Influx. […] After 30 min, animals were rapidly decapitated, the skull and dura removed, and the brain harvested. Brain radioactivity was normalized to the total radioactivity detected in a 5 μL aliquot put directly into a scintillation vial immediately before intracisternal injection. All brain tissue was weighed and solubilized in 0.5 mL tissue solubilizer (Solvable, PerkinElmer) overnight. Upon solubilization, 5 mL of scintillation cocktail was added (Ultima Gold, PerkinElmer). The injectate controls were treated in the same way as the tissue samples. All samples were analyzed by liquid scintillation spectrometry using a scintillation counter (LS 6500 Multipurpose Scintillation Counter, Beckman Coulter). The radioactivity (disintegrations per minute: dpm) remaining in the brain after injection (percent of injected dose: %ID) was determined as
where Rb is the radioactivity remaining in the brain at the end of the experiment and Ri is the radioactivity in the injectate controls for each experiment. Influx percentage was deduced as % ID. […]

Row | BBB permeability [1] | Compound | tracer influx rates across the entire dorsal cortex, faster than isotonic [2] | increase in tracer influx area ([2]; at 30 min) | plasma osmolality [3] | relative cerebral blood flow (rCBF) ([4]; 30-min recording after i.p.) | ICP relative to the isotonic controls ([4]; 30 min after i.p.) | mean arterial blood pressure (MAP) ([4]; anesthetized mice, i.p.) | reduction of the time to delivery of CSF tracer ([5]; KX-anesthetized mice, i.p.) | dorsal cortical surface covered by CSF tracer ([5]; KX-anesthetized mice, i.p., 30 min imaging) | increase in the influx area of CSF tracer ([5]; KX-anesthetized mice, i.p., vs isotonic controls) | penetration of an intracisternally-delivered CSF tracer ([5]; intraperitoneal) | increase of influx speeds of CSF tracer ([5]; intraperitoneal, intracisternally-delivered CSF tracer) | increase in the fractional tracer uptake to brain ([6]; plasma hyperosmolality (HTS or mannitol i.p.) vs isotonic) | total injected tracer delivered to the brain parenchyma ([6]; plasma hyperosmolality (HTS or mannitol i.p.))
1 | no significant increase | OC[C@@H](O)[C@@H](O)[C@H](O)[C@H](O)CO [mannitol] | roughly 1.5 fold | circa 20 fold | significantly elevated | slight reduction | significantly and consistently declined | reduced | roughly half | approximately 60% | five-fold | doubled | about 70% |  | 
2 |  | ^14C-inulin |  |  |  |  |  |  |  |  |  |  |  | roughly 125% | approximately 40%
